Drawing on paper PMC13470012, “Long-term inhibition of lysosomal glucocerebrosidase activity promotes GPX4 stability and inhibits ferroptosis in dopaminergic neurons” (Cell Death & Disease, 2026), this text covers IC50 for one molecule.

This experiment deals with T1, lysosomal glucocerebrosidase (Homo sapiens, UniProt P04062).
T1 construct: gene GBA1
T1 sequence (P04062 40-536): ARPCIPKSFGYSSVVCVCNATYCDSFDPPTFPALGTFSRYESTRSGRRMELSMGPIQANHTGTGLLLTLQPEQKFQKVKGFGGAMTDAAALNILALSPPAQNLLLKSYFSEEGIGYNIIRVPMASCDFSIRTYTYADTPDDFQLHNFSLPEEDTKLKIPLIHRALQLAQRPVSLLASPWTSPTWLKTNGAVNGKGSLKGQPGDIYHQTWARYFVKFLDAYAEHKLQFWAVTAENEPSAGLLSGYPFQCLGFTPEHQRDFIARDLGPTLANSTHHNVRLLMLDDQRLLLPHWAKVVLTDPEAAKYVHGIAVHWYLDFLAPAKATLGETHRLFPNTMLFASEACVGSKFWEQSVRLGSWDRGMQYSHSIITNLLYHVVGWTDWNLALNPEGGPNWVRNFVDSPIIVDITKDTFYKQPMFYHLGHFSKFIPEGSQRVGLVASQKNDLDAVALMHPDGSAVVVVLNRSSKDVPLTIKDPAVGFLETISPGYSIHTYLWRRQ
In words: fluorogenic (4-methylumbelliferone) glucocerebrosidase activity assay in lysates of CBE-treated human LUHMES cells, […] h dose range. In kind it is cell-based.

`O[C@H]1[C@H](O)[C@@H](O)[C@@H]2O[C@@H]2[C@@H]1O` [conduritol-beta-epoxide]: the IC50 is about 9 µM.
